What all share (format): physicochemical
A short description of one data set: Density of the powder. As to conditions: Table 1. From the text:
In another embodiment of the present disclosure, it is provided for the powder to have a density between 0.2 and 3 g/cm^3, preferably between 0.2 and 2.4 g/ cm^3 and particularly preferably between 0.2 and 1.6 g/ cm^3.

Data set [1] can be described thus: Hygroscopicity (moisture absorption) of the powder types. Conditions: sensitivity to moisture during sterilizing. From the text: The powders of present disclosure are hygroscopic. According to a preferred embodiment, amorphous silica (silicon dioxide) is therefore added to the powders, especially in a volume ratio of 0.1 to 2.5%. This can reduce or even completely prevent absorption of moisture by the powder during sterilizing. The addition of amorphous silica results in hydrophobic coating for the powder particles, thus counteracting the moisture absorption of the powder particles during the sterilizing process. In less hygroscopic powders, addition of amorphous silica may be reduced or even completely omitted. The following powder types may be classified as hygroscopic: sodium hydrogen carbonate, glycine and erythritol.

The nature of data set [2]: Solubility in water at 20° C. Conditions: for Solubility in water: Table 2; for solubility: water, Table 1. An excerpt: In this disclosure, substances are classified as water-soluble if more than 1 g of powder can be added per liter. […] The preferred powders have the following properties: […]

As usually defined, the solubility is the dissolved amount per volume that the medium holds. A low value points to little dissolved substance.

In brackets after ≈: the same amount, converted by molar mass.

With `OC[C@@H](O)[C@@H](O)CO` [Erythritol, erythritol], the Density in “Density of the powder” is 1.45 g/mL. Moreover, in data set [1], the Classification as hygroscopic entry was “hygroscopic”. Also, in data set [2], the Solubility in water worked out at 540 g/1 and the solubility came out at 540 mg/mL (≈ 4420 mM).

The compound `NCC(=O)O` [Glycine, glycine] registered a Density in “Density of the powder” of 1.61 g/mL. Also, in data set [1], the Classification as hygroscopic result was “hygroscopic”.

In “Density of the powder”, `O=C([O-])O.[Na+]` [Sodium bicarbonate, sodium bicarbonate] gave a Density of 2.54 g/mL. For the same compound, the Classification as hygroscopic entry in data set [1] is “hygroscopic”.

In “Density of the powder”, `OC[C@H]1O[C@H](O[C@H]2O[C@H](CO)[C@@H](O)[C@H](O)[C@H]2O)[C@H](O)[C@@H](O)[C@@H]1O` [Trehalose, trehalose] came in with a Density of 1.80 g/mL. Further, in data set [1], the Classification as hygroscopic entry is reported as “slightly less sensitive”. In data set [2], this compound came in with a Solubility in water of 690 g/1 and a solubility of 690 mg/mL (≈ 2020 mM).

Values taken from patent US20210177542A1, “POWDER FOR CLEANING AN INTERNAL BODY PART AND/OR AN IMPLANT, METHOD FOR PRODUCING SAID TYPE OF POWDER AND SUITABLE USES” (FERTON HOLDING S.A., priority 2017, published 2021).
